One test addresses T1, EHMT1 (Homo sapiens, UniProt Q9H9B1).
T1 sequence (Q9H9B1 1-1298): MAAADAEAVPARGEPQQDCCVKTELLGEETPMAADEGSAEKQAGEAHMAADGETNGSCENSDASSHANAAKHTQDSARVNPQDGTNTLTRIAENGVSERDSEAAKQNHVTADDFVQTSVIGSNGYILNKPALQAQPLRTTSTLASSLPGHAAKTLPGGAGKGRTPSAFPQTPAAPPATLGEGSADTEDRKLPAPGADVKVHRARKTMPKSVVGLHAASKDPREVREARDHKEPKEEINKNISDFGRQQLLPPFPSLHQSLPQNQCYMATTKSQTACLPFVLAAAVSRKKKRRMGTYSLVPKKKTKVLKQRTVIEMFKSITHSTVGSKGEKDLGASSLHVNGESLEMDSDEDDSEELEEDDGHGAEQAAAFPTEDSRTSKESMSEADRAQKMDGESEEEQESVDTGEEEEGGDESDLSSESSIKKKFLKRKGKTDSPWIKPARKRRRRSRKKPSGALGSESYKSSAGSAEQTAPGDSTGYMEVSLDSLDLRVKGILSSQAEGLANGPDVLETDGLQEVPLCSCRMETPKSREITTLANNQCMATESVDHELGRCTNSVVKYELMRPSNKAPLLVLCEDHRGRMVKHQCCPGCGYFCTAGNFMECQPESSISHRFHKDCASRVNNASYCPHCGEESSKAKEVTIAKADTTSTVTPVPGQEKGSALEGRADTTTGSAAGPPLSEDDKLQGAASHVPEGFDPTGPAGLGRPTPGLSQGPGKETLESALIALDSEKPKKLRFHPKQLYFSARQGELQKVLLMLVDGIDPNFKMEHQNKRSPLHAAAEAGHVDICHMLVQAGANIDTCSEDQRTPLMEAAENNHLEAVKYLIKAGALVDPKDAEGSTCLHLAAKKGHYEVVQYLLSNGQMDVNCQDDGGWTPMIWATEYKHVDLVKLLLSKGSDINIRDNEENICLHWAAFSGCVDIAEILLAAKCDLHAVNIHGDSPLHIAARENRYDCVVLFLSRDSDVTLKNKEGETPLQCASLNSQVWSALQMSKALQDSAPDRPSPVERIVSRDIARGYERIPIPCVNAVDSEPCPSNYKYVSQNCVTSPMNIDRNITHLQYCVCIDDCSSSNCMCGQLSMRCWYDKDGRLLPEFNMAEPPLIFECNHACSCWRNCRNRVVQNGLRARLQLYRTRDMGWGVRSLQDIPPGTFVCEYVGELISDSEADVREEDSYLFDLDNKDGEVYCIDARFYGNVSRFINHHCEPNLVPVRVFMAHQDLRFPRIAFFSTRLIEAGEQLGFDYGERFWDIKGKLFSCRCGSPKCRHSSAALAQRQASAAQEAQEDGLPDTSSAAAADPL
Briefly: EHMT1 PEP (EHMT1 peptide enzyme assay). Type of test: biochemical. Particulars: peptide substrate enzyme assay.

The test system of test [1] is H3K9me2 in MDA-MB-231 cells. Briefly: MDA-MB-231 H3K9me2 in-cell western assay. Particulars: Homo sapiens, read-out: EHMT2 ICW (IC50 μM). The class given is cell-based. The method, boiled down: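 MDA-MB-231 cells (3,000/well) exposed to compound for two consecutive 48 h periods at 37 °C, then fixed and stained for H3K9me2, with DRAQ5 as DNA stain and infrared read at 700/800 nm. Percent inhibition was set between DMSO and UNC0638 control wells. IC50 came from triplicate dose–response fits with a four-parameter model, top 100%, bottom 0%.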

As a reminder, the IC50 is the concentration at which inhibition is half-maximal. On to `CNc1cc(C)nc(Nc2ccc(OC)c(-c3nnc(CN(C)C)[nH]3)c2)n1` [Compound 73], for which the IC50 on EHMT1 is 1 to 10 µM; in test [1], > 10 µM.

Regarding `CNc1cc(C)nc(Nc2cnc(OC)c(-n3cc(CN(C)C)cn3)c2)n1` [Compound 74], the IC50 against EHMT1 was < 0.1 µM; in test [1] it was 0.1 to 1 µM.

As for `CNc1cc(C)nc(Nc2ccc(OC)c(-n3ncc4c3CN(C(C)=O)CC4)c2)n1` [Compound 75], the IC50 (against EHMT1; in test [1]) was > 10 µM in each case.

For the compound `CNc1cc(C)nc(Nc2ccc(OC)c(-n3nccc3CNC(C)=O)c2)n1` [Compound 76], the IC50 (against EHMT1; in test [1]) was > 10 µM in each case.

For the compound `CNc1cc(C)nc(Nc2ccc(OC)c(-c3nnc4n3CCN(C(=O)OC(C)(C)C)C4)c2)n1` [Compound 77], the 50% inhibitory concentration (IC50) (on EHMT1; in test [1]) was > 10 µM each time.

In the case of `CNc1cc(C)nc(Nc2ccc(OC)c(-c3nc4c([nH]3)CNCC4)c2)n1` [Compound 78], the half-maximal inhibitory concentration (IC50) was 1 to 10 µM at EHMT1 and > 10 µM in test [1].

As for `CNc1cc(C)nc(Nc2ccc(OC)c(-c3nc4c([nH]3)CN(C)CC4)c2)n1` [Compound 79], the figures for the IC50 (against EHMT1; in test [1]) were 1 to 10 µM and > 10 µM, respectively.

Regarding `CNc1cc(C)nc(Nc2ccc(OC)c(-n3cc(C)c4c3CCN(C)C4)c2)n1` [Compound 81], the IC50 (against EHMT1; in test [1]) was 1 to 10 µM throughout.

For the compound `CNc1cc(C)nc(Nc2ccc(OC)c(-n3cc4c(n3)CCN(C3CC3)C4)c2)n1` [Compound 82], the IC50 lay within 0.1 to 1 µM against EHMT1 and 1 to 10 µM in test [1].

Consider `COc1ncc(Nc2nc(C)cc(NCC3COC3)n2)cc1-n1cc(CN(C)C)nn1` [Compound 86], for which the IC50 (against EHMT1; in test [1]) was > 10 µM in each case.

For the compound `CNC(=O)CCNc1cc(C)nc(Nc2ccc(OC)c(-n3cc4c(n3)CCN(C)C4)c2)n1` [Compound 87], the results for the IC50 (at EHMT1; in test [1]) were < 0.1 µM and 0.1 to 1 µM, respectively.

In the case of `CNC(=O)N1CC(CNc2cc(C)nc(Nc3ccc(OC)c(-n4cc5c(n4)CCN(C)C5)c3)n2)C1` [Compound 88], the IC50 against EHMT1 is 0.1 to 1 µM; in test [1], > 10 µM.

`CNc1cc(C)nc(Nc2ccc(OC)c(-c3cc4cnccn4n3)c2)n1` [Compound 93]: the IC50 at EHMT1 was 1 to 10 µM; in test [1], > 10 µM.

With `CNc1cc(C)nc(Nc2ccc(OC)c(-n3cc(C)c(CNC(C)=O)n3)c2)n1` [Compound 94], the IC50 was 1 to 10 µM at EHMT1 and > 10 µM in test [1].

Regarding `CNc1cc(C)nc(Nc2ccc(OC)c(-n3ccc(CNC(C)=O)n3)c2)n1` [Compound 95], the IC50 (against EHMT1; in test [1]) was > 10 µM each time.

As to `CNc1cc(C)nc(Nc2ccc(OC)c(-n3ccc(CN(C)C(C)=O)n3)c2)n1` [Compound 96], the IC50 (on EHMT1; in test [1]) was > 10 µM in each case.

As for `CNc1cc(C)nc(Nc2ccc(OC)c(-n3cc4c(C)nccc4n3)c2)n1` [Compound 99], the IC50 (on EHMT1; in test [1]) was 1 to 10 µM throughout.

Turning to `CNc1cc(C)nc(Nc2ccc(OC)c(-n3cc4c(OC)nccc4n3)c2)n1` [Compound 100], the IC50 is > 10 µM against EHMT1 and 1 to 10 µM in test [1].

As to `CNc1cc(C)nc(Nc2ccc(OC)c(-n3cc(C)c(CN(C)C)n3)c2)n1` [Compound 102], the IC50 against EHMT1 lay within 0.1 to 1 µM; in test [1], 1 to 10 µM.

Take `CNC(=O)c1cn(-c2cc(Nc3nc(C)cc(NC)n3)ccc2OC)nc1C` [Compound 103]: the IC50 (at EHMT1; in test [1]) was > 10 µM in each case.

As to `CNC(=O)c1cnn(-c2cc(Nc3nc(C)cc(NC)n3)ccc2OC)c1` [Compound 104], the IC50 at EHMT1 is 1 to 10 µM; in test [1], > 10 µM.

With `CNC(=O)c1c(C)nn(-c2cc(Nc3nc(C)cc(NC)n3)ccc2OC)c1C` [Compound 105], the IC50 (on EHMT1; in test [1]) was > 10 µM in each case.

Regarding `CNCc1c(C)nn(-c2cc(Nc3nc(C)cc(NC)n3)ccc2OC)c1C` [Compound 106], the IC50 (against EHMT1; in test [1]) was > 10 µM in each case.

Regarding `CNc1cc(C)nc(Nc2ccc(OC)c(-n3cc(CN(C)C)cn3)c2)n1` [Compound 109, N2-(3-(4-((dimethylamino)methyl)-1H-pyrazol-1-yl)-4-methoxyphenyl)-N4,6-dimethylpyrimidine-2,4-diamine], the IC50 (on EHMT1; in test [1]) was < 0.1 µM in each case.

Take `CNc1cc(C)nc(Nc2ccc(OC)c(-n3ncc4c3CCNC4)c2)n1` [Compound 113, N2-(4-methoxy-3-(4,5,6,7-tetrahydro-1H-pyrazolo[4,3-c]pyridin-1-yl)phenyl)-N4,6-dimethylpyrimidine-2,4-diamine]: the IC50 against EHMT1 was < 0.1 µM; in test [1] it was 0.1 to 1 µM.

For `CNc1cc(C2CCOCC2)c2cc(OC)c(-n3cc(CN(C)C)nn3)cc2n1` [Compound 116], the IC50 (against EHMT1; in test [1]) was 1 to 10 µM each time.

Turning to `CNC(=O)c1cn(-c2cc(Nc3nc(C)cc(NC)n3)ccc2OC)nn1` [Compound 117], the IC50 (against EHMT1; in test [1]) was > 10 µM throughout.

As to `CNc1cc(C)nc(Nc2ccc(OC)c(-n3ncc4ncccc43)c2)n1` [Compound 119], the IC50 against EHMT1 is 1 to 10 µM; in test [1], > 10 µM.

Take `CNc1cc(C)nc(Nc2ccc(OC)c(-n3cc(CN4CCC4)nn3)c2)n1` [Compound 121]: the IC50 (at EHMT1; in test [1]) was 0.1 to 1 µM each time.

As to `CNCc1cn(-c2cc3nc(NC)cc(C)c3cc2OC)nn1` [Compound 122], the results for the IC50 (on EHMT1; in test [1]) were 0.1 to 1 µM and 1 to 10 µM, respectively.

In the case of `CNc1cc(C)c2cc(OC)c(-n3cc(C4CCCN4)nn3)cc2n1` (stereo not drawn) [Compound 125], the IC50 is < 0.1 µM against EHMT1 and 0.1 to 1 µM in test [1].

As for `CNC(=O)c1nn(-c2cc(Nc3nc(C)cc(NC)n3)ccc2OC)cc1C` [Compound 134], the IC50 (against EHMT1; in test [1]) was > 10 µM throughout.

Consider `CNc1cc(C)nc(Nc2ccc(OC)c(-n3cc(C4CCCN4C)nn3)c2)n1` (stereo not drawn) [Compound 136], for which the 50% inhibitory concentration (IC50) (at EHMT1; in test [1]) was 0.1 to 1 µM in each case.

On to `CNc1cc(C)nc(Nc2ccc(OC)c(-n3cc(C4CCCN4)nn3)c2)n1` (stereo not drawn) [Compound 137, N2-(4-methoxy-3-(4-(pyrrolidin-2-yl)-1H-1,2,3-triazol-1-yl)phenyl)-N4,6-dimethylpyrimidine-2,4-diamine], for which the IC50 on EHMT1 is < 0.1 µM; in test [1], 0.1 to 1 µM.

As for `CNc1cc(C)nc(Nc2ccc(OC)c(-n3nnc(C)c3CN(C)C)c2)n1` [Compound 138], the IC50 (on EHMT1; in test [1]) was > 10 µM in each case.

Take `CNc1cc(C)nc(Nc2ccc(OC)c(-n3nnc(CN(C)C)c3C)c2)n1` [Compound 139]: the IC50 (against EHMT1; in test [1]) was > 10 µM throughout.

On to `CCN(CC)Cc1cn(-c2cc(Nc3nc(C)cc(NC)n3)ccc2OC)nn1` [Compound 143], for which the IC50 on EHMT1 was in the range of 0.1 to 1 µM; in test [1] it was 1 to 10 µM.

Consider `CNc1cc(C)nc(Nc2ccc(OC)c(-n3cc4cc(C)ccc4n3)c2)n1` [Compound 144], for which the IC50 on EHMT1 was 1 to 10 µM; in test [1], > 10 µM.

Take `CNc1cc(C)nc(Nc2ccc(OC)c(-n3cc4cc(C5CC5)ccc4n3)c2)n1` [Compound 145]: the IC50 (on EHMT1; in test [1]) was > 10 µM throughout.

(Values after patent US20220235065A1 (Epizyme, Inc., priority 2016, published 2022).)
